Laboratory results taken from patent publication US20250101062A1, “ANTIMICROBIAL PEPTIDES” (Board of Regents of the University of Nebraska, priority 2023, published 2025).
Read-outs that look alike come from different tables or passages of the source. Where no end group is shown, it is not given here.

Tests used:
P. aeruginosa E416-17 = assay type: cell-based, Pseudomonas aeruginosa
Experimental: Peptide activity against bacteria were tested using the CLSI standard procedure with minor modifications (Clinical and Laboratory Standards Institute (2018) Performance standards for antimicrobial susceptibility testing, 9th ed.; Mishra, et al. (2019) Proc. Natl. Acad. Sci., 116(27):13517-13522). In brief, a peptide concentration gradient with twofold dilution was made in the 96-well polystyrene microplate at 10 μL per well. Bacteria were grown to the exponential phase (i.e., optical density at 600 nm≈0.5), diluted to ˜10^5 CFU/mL in MHB, and partitioned into the 96-well microplate at 90 μL per well. The microplates were incubated at 37° C. overnight and read on a ChroMate® 4300 Microplate Reader at 600 nm (GMI, Ramsey, MN). The peptide concentration in the wells without bacterial growth is the minimal inhibitory concentration (MIC). As the convention, MIC values were represented as ranges.

S. epidermidis 1457 = assay: microbe, parasite or virus in culture; assay type: cell-based, Staphylococcus epidermidis; conditions: read-out: Antimicrobial activity (MIC) S. epidermidis 1457
Procedure, shortened: (§1)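 Peptides twofold serially diluted against exponential-phase resistant clinical isolates at ~10^5 CFU/mL in MHB (also diluted MHB, TSB or LB in one protocol), CLSI-based broth microdilution. Incubated overnight at 37° C., OD 600 nm read; MIC taken as lowest concentration without growth, reported as ranges.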

Cytotoxicity assay (MTS) = assay type: cell-based; conditions: human, HepG2 cells, read-out: LC50
Experimental: (§2) HepG2 cells were cultured in ATCC-formulated Eagle's Minimum Essential Medium with 10% FBS. A549 cells were grown in ATCC-formulated F-12K Medium containing 10% FBS.

[1] = Cell viability assay (MTS); assay type: cell-based, human; conditions: human; 24 h; read-out: 50% lethal concentration (LC50)
Experimental: Human keratinocyte HaCaT cells were grown in DMEM/high glucose (Hyclone, UT) containing 10% fetal bovine serum (Mediatech, Corning, Manassas, VA). […] The mixture was incubated at 37° C. in 5% CO2 for 24 hours.
as §2

K. pneumoniae E406-17 = assay type: cell-based, Klebsiella pneumoniae
Procedure, shortened: as §1

E. coli E423-17 = assay type: cell-based, Escherichia coli; conditions: E423-17
P. aeruginosa E411-17 = assay: microbe, parasite or virus in culture; assay type: cell-based, Pseudomonas aeruginosa; conditions: for MIC: read-out: Antimicrobial activity (MIC)
Procedure, shortened: (§3)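 Broth microdilution with twofold peptide dilutions, using exponential-phase bacteria at about 10^5 CFU/mL in MHB, incubated overnight at 37 °C and read at OD600. MIC, reported as a range, is the peptide concentration with no growth. Some tests used diluted MHB/TSB/LB, adjusted pH, or added NaCl or human serum.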

human red blood cells = assay: Hemolytic assay; assay type: cell-based; conditions: red cells of human
Experimental: The hemolytic effects of peptides were evaluated using a method with minor modifications (Lakshmaiah Narayana, et al. (2021) ACS Infect. Dis., 7:1795-1808). Human red blood cells (hRBCs, UNMC Blood Bank) were washed (3×) with blood bank saline (isotonic solution 0.90% w/v, Fisher). Cells were diluted to 2% using the saline solution, and aliquots of 90 μL were added to a 96-well polystyrene microplate containing 10 μL of serially diluted peptide solutions. After incubation at 37° C. for 1 hour, plates were centrifuged at 500 g for 5 minutes. Aliquots of the supernatant were transferred to a 96-well microplate. The amount of hemoglobin released was measured at 545 nm by using a ChroMate™ microplate reader. […] HC50 is defined as the concentration of the peptide that caused 50% lysis.
The hemolytic effects of peptides were evaluated (Narayana, et al. (2020) Proc. Natl. Acad. Sci., 117(32):19446-9454). In brief, human red blood cells (UNMC Blood Bank) were washed (3×) and diluted to 2% using the saline solution. Aliquots of 90 μL were mixed with 10 μL of serially diluted peptide solutions. After incubation at 37° C. for 1 hour, plates were centrifuged at 500 g for 5 minutes and aliquots of the supernatant were transferred to a new 96-well microplate to measure the amount of hemoglobin released at 545 nm (relative to 1% Triton® X-100) using a ChroMate® Microplate Reader.

A. baumannii B28-16 = assay type: cell-based, Acinetobacter baumannii; conditions: B28-16
Procedure, shortened: as §1

S. aureus USA300 LAC = assay: microbe, parasite or virus in culture; assay type: cell-based, Staphylococcus aureus
Procedure, shortened: as §3

In the case of RWKRFLRNWV-NH2 [RIK-10+], the “MIC P. aeruginosa E416-17” value (P. aeruginosa E416-17) is reported as 4 µM, the MIC (S. epidermidis 1457) is reported as >32 µM and the CC50 at 24 h (Cytotoxicity assay (MTS)) is reported as 100 µM. The CC50 at 24 h [1] was 100 µM, the “MIC K. pneumoniae E406-17” value (K. pneumoniae E406-17) was 32 µM and the “Antimicrobial activity (MIC) E. coli E423-17” value (E. coli E423-17) was 4 µM. For the same substance, the “MIC E. coli E423-17” value (E. coli E423-17) was 4 to 8 µM, the “Antimicrobial activity (MIC) P. aeruginosa E411-17” value (P. aeruginosa E411-17; E411-17) was 4 µM and the MIC (P. aeruginosa E411-17; E411-17, pH 6.21) was 8 µM. The “Antimicrobial activity (MIC)” value (P. aeruginosa E411-17; E411-17, pH 7.22) was 4 to 8 µM, the MIC (P. aeruginosa E411-17; E411-17, pH 8.13) was 4 µM and the MIC (P. aeruginosa E411-17; E411-17) was >32 µM. The “Hemolysis (HC10), 10% hemolytic concentration” value (human red blood cells) was 220 µM, the “Antimicrobial activity (MIC) A. baumannii B28-16” value (A. baumannii B28-16) was 8 µM and the “MIC S. aureus USA300” value (S. aureus USA300 LAC; USA300) was 16 to 32 µM. The MIC (S. aureus USA300 LAC; USA300, pH 6.21, read-out: Antimicrobial activity (MIC)) was >32 µM, the MIC (S. aureus USA300 LAC; USA300, pH 7.22, read-out: Antimicrobial activity (MIC)) was 16 µM and the MIC (S. aureus USA300 LAC; USA300, pH 8.13, read-out: Antimicrobial activity (MIC)) was 8 µM. The MIC (S. aureus USA300 LAC; USA300, read-out: Antimicrobial activity (MIC)) was > 32 µM and the MIC (S. aureus USA300 LAC; USA300, read-out: Antimicrobial activity (MIC) S. aureus USA300) was 16 µM.
